From article PMC8303187, “Anti-Inflammatory Effects of Compounds from Cudrania tricuspidata in HaCaT Human Keratinocytes” (International Journal of Molecular Sciences, 2021)

Key:
Type in all cases: cell-based, human
[1] = system: ICAM-1 protein expression in HaCaT cells; test: ICAM-1 protein expression in TNF-α + IFN-γ-treated HaCaT cells (Western blotting); details: HaCaT cells pre-incubated 3 h (5–80 μM), then TNF-α + IFN-γ (20 ng/mL) 6 h; Western blot
Excerpt: ICAM-1 is expressed in keratinocytes and is critical for the development of many skin diseases, such as contact dermatitis and lichen planus. Cyclooxygenase (COX) is the enzyme responsible for the conversion of arachidonic acid to prostaglandin H2, which is the main step in the prostaglandin synthesis pathway. COX-2 expression plays a key role in skin inflammation. In this experiment, the anti-inflammatory effects of the six compounds from C. tricuspidata on the expression of pro-inflammatory proteins were investigated in TNF-α + IFN-γ-treated HaCaT cells. […] Previous studies have reported that compound 6 inhibits the expression of COX-2 [55]; however, this study is the first to report the inhibition of COX-2 protein production by compound 6 in HaCaT cells. […]
(§1) Figure 4 Protein expression levels of COX-2 (A,B) and ICAM-1 (C,D) in TNF-α + IFN-γ-treated HaCaT cells. […] The immunoblot was quantified using ImageJ software. […]
(§2) Cells were harvested and pelleted via centrifugation at 200× g for 3 min, washed with PBS, and lysed in 20 mM Tris-HCl buffer (pH 7.4) containing a protease inhibitor mixture (0.1 mM phenylmethanesulfonyl fluoride, 5 mg/mL aprotinin, 5 mg/mL pepstatin A, and 1 mg/mL chymostatin). The protein concentration was determined using a protein assay dye reagent concentrate (#5000006; Bio-Rad Laboratories, Hercules, CA, USA). […]

[2] = system: COX-2 protein expression in HaCaT cells; test: COX-2 protein expression in TNF-α + IFN-γ-treated HaCaT cells (Western blotting); details: HaCaT cells pre-incubated 3 h (5–80 μM), then TNF-α + IFN-γ (20 ng/mL) 24 h; Western blot
Excerpt: ICAM-1 is expressed in keratinocytes and is critical for the development of many skin diseases, such as contact dermatitis and lichen planus. Cyclooxygenase (COX) is the enzyme responsible for the conversion of arachidonic acid to prostaglandin H2, which is the main step in the prostaglandin synthesis pathway. COX-2 expression plays a key role in skin inflammation. In this experiment, the anti-inflammatory effects of the six compounds from C. tricuspidata on the expression of pro-inflammatory proteins were investigated in TNF-α + IFN-γ-treated HaCaT cells. Briefly, cells were pre-incubated for 3 h with or without the six compounds from C. tricuspidata (5–80 μM) and were subsequently challenged with TNF-α + IFN-γ (20 ng/mL) for 24 h. […]
as §1, §2

[3] = system: ERK1/2 phosphorylation in HaCaT cells; test: ERK1/2 phosphorylation in TNF-α + IFN-γ-treated HaCaT cells (Western blotting); details: HaCaT cells pretreated 3 h, then TNF-α + IFN-γ (20 ng/mL) 15 min; Western blot
Description: (§3) Stimulation of keratinocytes with TNF-α + IFN-γ upregulates various MAPK signaling pathways. To evaluate the anti-inflammatory effects of the six compounds from C. tricuspidata on the MAPK pathway, Western blotting analysis was used to determine the phosphorylation levels of JNK1/2, ERK1/2, and p38 in TNF-α + IFN-γ-treated HaCaT cells. Cells were pretreated with the six compounds from C. tricuspidata at the indicated concentrations for 3 h, and then stimulated with TNF-α + IFN-γ (20 ng/mL) for either 15 min, 2 h, or 6 h. Following the treatment with TNF-α + IFN-γ for 2 h, the phosphorylation of JNK1/2 was not inhibited by any of the six compounds (Figure 6A,B). After 15 min of treatment with TNF-α + IFN-γ, ERK1/2 phosphorylation was inhibited only by compound 14 (Figure 6C,D). The phosphorylation of p38 was inhibited only by compounds 13 and 4 after 6 h of treatment with TNF-α + IFN-γ (Figure 6E,F). […]
(§4) Figure 6 Effect of the six compounds from C. tricuspidata on JNK-1/2, ERK-1/2, and p38 phosphorylation in HaCaT cells. […] Cell extracts were analyzed using Western blotting and antibodies specific for phosphorylated JNK1/2 (p-JNK1/2), p-ERK1/2, or p-p38. […] Immunoblots were quantified using ImageJ software. The band intensity was quantified and normalized to each total protein concentration. * p < 0.05, ** p < 0.01, and *** p < 0.001 compared with TNF-α + IFN-γ only. […]

[4] = system: p38 phosphorylation in HaCaT cells; test: p38 phosphorylation in TNF-α + IFN-γ-treated HaCaT cells (Western blotting); details: HaCaT cells pretreated 3 h, then TNF-α + IFN-γ (20 ng/mL) 6 h; Western blot
Description: as §3, §4

Compound | ICAM-1 expression [1] | expression level of COX-2 [2] | ERK1/2 phosphorylation [3] | phosphorylation of p38 [4]
C=CC(C)(C)c1c(O)cc(O)c2c(=O)c3cc(O)c(O)cc3oc12 [Compound 14, cudratricusxanthone L] | particularly effective | decreased | inhibited | 
CC(C)=CCc1c(O)cc2oc(-c3ccc(O)cc3O)c(CC=C(C)C)c(=O)c2c1O [Compound 6, cudraflavone C] | particularly effective | decreased |  | 
CC(C)=CCc1c(O)cc2c(c1O)C(=O)C[C@@H](c1ccc(O)cc1O)O2 [Compound 4, cudraflavanone B] |  |  |  | inhibited
C=CC(C)(C)c1c(OC)cc2oc3cc(O)c(O)cc3c(=O)c2c1O [Compound 13, 1,6,7-trihydroxy-2-(1,1-dimethyl-2-propenyl)-3-methoxyxanthone] |  |  |  | inhibited
